Source: publication PMC9133015 (Nature Communications, 2022)
Values joined by “and” are separate entries in the source; they are usually repeats but may differ in a detail not shown here. Identical values can stand only once. Like-named read-outs stand apart in the source and are kept apart here.

Biological target: T1, DYRK2 (Homo sapiens, UniProt Q92630)
T1 construct: purchased Reaction Biology Corporation (assay service)
T1 sequence (Q92630 1-601): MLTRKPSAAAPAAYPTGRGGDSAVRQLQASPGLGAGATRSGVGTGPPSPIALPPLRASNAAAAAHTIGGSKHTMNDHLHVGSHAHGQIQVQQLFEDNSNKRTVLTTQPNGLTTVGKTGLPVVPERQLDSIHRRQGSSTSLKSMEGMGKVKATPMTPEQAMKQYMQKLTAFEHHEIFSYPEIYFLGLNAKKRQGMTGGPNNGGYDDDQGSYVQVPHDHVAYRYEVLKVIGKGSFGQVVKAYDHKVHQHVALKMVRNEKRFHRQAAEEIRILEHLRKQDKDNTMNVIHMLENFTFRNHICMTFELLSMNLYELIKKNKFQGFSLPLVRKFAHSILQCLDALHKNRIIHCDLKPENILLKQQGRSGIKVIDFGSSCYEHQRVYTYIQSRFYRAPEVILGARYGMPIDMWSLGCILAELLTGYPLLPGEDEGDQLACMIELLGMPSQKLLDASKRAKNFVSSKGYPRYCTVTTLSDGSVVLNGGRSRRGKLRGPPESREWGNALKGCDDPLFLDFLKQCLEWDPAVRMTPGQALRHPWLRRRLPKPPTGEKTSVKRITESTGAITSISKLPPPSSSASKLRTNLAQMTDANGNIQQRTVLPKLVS
Test: DYRKs kinase activity assay (33P-ATP, DYRKtide substrate): DYRK2
Format: biochemical

[1] = DYRK2 kinase, Conc. 1.66667 µM, duplicate values
[2] = DYRK2 kinase, Conc. 0.000508053 µM, duplicate values
[3] = DYRK2 kinase, Conc. 0.00152416 µM, duplicate values
[4] = DYRK2 kinase, Conc. 0.00457247 µM, duplicate values
[5] = DYRK2 kinase, Conc. 0.0137174 µM, duplicate values
[6] = DYRK2 kinase, Conc. 0.0137174 µM, duplicate values, read-out: % Inhibition
[7] = DYRK2 kinase, Conc. 0.0411523 µM, duplicate values
[8] = DYRK2 kinase, Conc. 0.0411523 µM, duplicate values, read-out: % Inhibition
[9] = DYRK2 kinase, Conc. 0.123457 µM, duplicate values
[10] = DYRK2 kinase, Conc. 0.123457 µM, duplicate values, read-out: % Inhibition
[11] = DYRK2 kinase, Conc. 0.37037 µM, duplicate values
[12] = DYRK2 kinase, Conc. 0.37037 µM, duplicate values, read-out: % Inhibition
[13] = DYRK2 kinase, Conc. 1.11111 µM, duplicate values
[14] = DYRK2 kinase, Conc. 1.11111 µM, duplicate values, read-out: % Inhibition
[15] = DYRK2 kinase, Conc. 3.33333 µM, duplicate values
[16] = DYRK2 kinase, Conc. 3.33333 µM, duplicate values, read-out: % Inhibition
[17] = DYRK2 kinase, Conc. 10 µM, duplicate values
[18] = DYRK2 kinase, Conc. 10 µM, duplicate values, read-out: % Inhibition
[19] = Supplementary Table 1, read-out: IC50 (μM), DYRK2 kinase

SMILES	% Inhibition [2]	% Inhibition [3]	% Inhibition [4]	% Inhibition [5]	inhibition at 0.0137174 µM [6] [%]	% Inhibition [7]	inhibition at 0.0411523 µM [8] [%]	% Inhibition [9]	inhibition at 0.123457 µM [10] [%]	% Inhibition [11]	inhibition at 0.37037 µM [12] [%]	% Inhibition [13]	inhibition at 1.11111 µM [14] [%]	% Inhibition [15]	inhibition at 3.33333 µM [16] [%]	% Inhibition [17]	inhibition at 10 µM [18] [%]	IC50 [19] [µM]	also measured
CCN1CCN(C(=O)c2ccc(Nc3ncc(F)c(-c4ccc5nc(N(C)C)sc5c4)n3)nc2)CC1 [Compound 26 (YK-2-69)]																			% Inhibition (DYRK2 kinase, Conc. 0.000762079 µM, duplicate values): 2.89% and 7.10%; % Inhibition (DYRK2 kinase, Conc. 0.00228624 µM, duplicate values): 21.49%; inhibition at 0.00228624 µM (DYRK2 kinase, Conc. 0.00228624 µM, duplicate values, read-out: % Inhibition): 26.1%; % Inhibition (DYRK2 kinase, Conc. 0.00685871 µM, duplicate values): 46.13%; inhibition at 0.00685871 µM (DYRK2 kinase, Conc. 0.00685871 µM, duplicate values, read-out: % Inhibition): 53%; % Inhibition (DYRK2 kinase, Conc. 0.0205761 µM, duplicate values): 59.65%; inhibition at 0.0205761 µM (DYRK2 kinase, Conc. 0.0205761 µM, duplicate values, read-out: % Inhibition): 65.2%; % Inhibition (DYRK2 kinase, Conc. 0.0617284 µM, duplicate values): 82.13%; inhibition at 0.0617284 µM (DYRK2 kinase, Conc. 0.0617284 µM, duplicate values, read-out: % Inhibition): 82.1%; % Inhibition (DYRK2 kinase, Conc. 0.185185 µM, duplicate values): 93.18%; inhibition at 0.185185 µM (DYRK2 kinase, Conc. 0.185185 µM, duplicate values, read-out: % Inhibition): 94.1%; % Inhibition (DYRK2 kinase, Conc. 0.555556 µM, duplicate values): 96.77%; inhibition at 0.555556 µM (DYRK2 kinase, Conc. 0.555556 µM, duplicate values, read-out: % Inhibition): 96.8%; % Inhibition [1]: 98.11%; inhibition at 1.66667 µM [1]: 97.3%; % Inhibition (DYRK2 kinase, Conc. 5 µM, duplicate values): 97.16%; inhibition at 5 µM (DYRK2 kinase, Conc. 5 µM, duplicate values, read-out: % Inhibition): 97.8%
Cl.Fc1cnc(Nc2ccc(N3CCNCC3)cn2)nc1-c1ccc2ncsc2c1 [Compound 21]	9.05%	8.33%	11.99%	16.84%	14	38.81%	36.7	56.81%	55.4	75.73%	74	88.57%	86.9	94.50%	95.3	95.74%	96.6		inhibition at 0.000508053 µM [2]: 8.81%; inhibition at 0.00152416 µM (DYRK2 kinase, Conc. 0.00152416 µM, duplicate values, read-out: % Inhibition): 12.2%; inhibition at 0.00457247 µM [4]: 13.8%; IC50 (read-out: DYRK2 IC50): 0.085 µM
O=C(COc1ccccc1-c1ccnn1-c1ccccc1)NN=Cc1coc2ccc(Cl)cc2c1=O [Compound 11]	-0.64% and -0.50%	-10.49% and -4.61%	-7.80% and -6.47%	2.76% and 2.77%		5.64% and 5.65%		2.54%		6.34% and 2.72%		14.05% and 16.10%		22.86% and 21.57%		38.49% and 39.53%		> 10	
Cc1nc2ccc(-c3nc(Nc4ccc(C(=O)N5CCNCC5)cn4)ncc3F)cc2s1.Cl [Compound 24]	2.20% and 10.58%	4.62% and 14.25%	24.52%	39.86%	35.4	60.50%	61	75.45%	73	85.34%	86.1	90.57%	92	94.68%	95	98.21%	97		inhibition at 0.00457247 µM [4]: 19.2%; IC50 (read-out: DYRK2 IC50): 0.027 µM
CC(C)(C)OC(=O)N1CCN(Cc2ccc(Nc3ncc(F)c(-c4ccc5ncsc5c4)n3)nc2)CC1 [Compound 17]	-1.98% and -2.03%	-0.44% and -0.45%	-0.11% and -0.23%	0.54%	0.53	9.25%	8.33	18.48%	18.1	37.11%	36.6	48.09%	47	58.92%	57.6	60.62%	59.4		DYRK2 inhibitory activity (in words) (structural optimization of lead 12): significantly decreased activity
Cc1ccc(CN(Cc2ccc(C=NNC(=O)c3c(C)nc4sccn34)o2)S(=O)(=O)c2ccc(C)cc2)cc1 [Compound 7]	-2.50% and -2.39%	-0.71% and 1.61%	3.49% and 3.33%	5.71% and 7.69%		-2.86% and -2.73%		2.70% and 2.58%		3.31% and 5.45%		-1.26% and -1.20%		2.47% and 2.36%		8.07% and 7.70%		> 10	
O=C(CSc1nnc2sc3ccccc3n12)N1CCN(C(=O)CSc2nnc3sc4ccccc4n23)CC1 [Compound 4]	0.98% and -1.30%	14.00% and 9.63%	3.52% and 1.28%	7.11% and 4.92%		13.04% and 8.66%		25.55% and 23.66%		22.22% and 20.28%		26.61% and 24.74%		20.66% and 23.29%		27.83% and 25.98%		> 10	
Cn1c(CN2CCN(C(=O)C3CCCCC3)CC2)nc2cc(NC(=O)Nc3ccccc3)ccc21 [Compound 13]	1.82% and 2.74%	3.66% and 2.25%	7.30% and 8.12%	10.53% and 13.70%		5.97% and 6.86%		12.38% and 8.48%		14.58% and 13.01%		21.59% and 24.67%		29.05% and 32.01%		31.39% and 34.31%		> 10	
COc1cc(-c2nnc(CSc3nc4c(OC)ccc(OC)c4[nH]3)o2)cc(OC)c1OC [Compound 15]	-1.53% and -4.09%	-4.76% and -6.22%	-1.13% and -0.37%	-10.53% and -12.16%		-9.17% and -11.37%		-2.00% and -9.98%		-8.29% and -9.76%		-3.66% and -9.01%		0.93% and -1.24%		16.42% and 14.23%		> 10	
